Measurements taken from PubChem BioAssay AID1745844 (Carcinogenic Potency Database (CPDB), 2022).
Active and inactive are the calls of the source. How the calls were made is not given here.

Tested on: rodent lifetime carcinogenesis bioassay, tumor incidence TD50
Test: carcinogenic potency in animals, long-term in vivo studies, CPDB compilation (AID 1745844)

CC1CN1P(=O)(N1CC1C)N1CC1C (centres undefined)
TD50 (rat, strain Sherman, males, by gavage, site: all sites, lesion: lymphatic leukemia, dosed 60 weeks, study length 60 weeks): 4.46 mg/kg/day

CCN(CC)c1ccc2c(-c3ccc(S(=O)(=O)O)cc3S(=O)(=O)[O-])c3ccc(=[N+](CC)CC)cc-3oc2c1
TD50 (rat, strain F344/DuCrj, females, in feed, site: any site (literature study), lesion: several types, types named in the paper, dosed 106 weeks, study length 106 weeks): 4100 mg/kg/day (inactive)
carcinogen call (rat, strain F344/DuCrj, females, in feed, site: liver, lesion: one or several types, types not named, dosed 106 weeks, study length 106 weeks): negative (inactive)
TD50 (rat, strain F344/DuCrj, males, in feed, site: any site (literature study), lesion: several types, types named in the paper, dosed 106 weeks, study length 106 weeks): 2350 mg/kg/day (inactive)
carcinogen call (rat, strain F344/DuCrj, males, in feed, site: liver, lesion: neoplastic nodule, dosed 106 weeks, study length 106 weeks): negative (inactive)

CN[C@H]1CCc2cc(OC)c(OC)c(OC)c2-c2ccc(OC)c(=O)cc21
TD50 (rat, strain BR 46, males, i.v., site: any site (literature study), lesion: benign tumor, dosed 52 weeks, study length 104 weeks): 0.248 mg/kg/day (inactive)
TD50 (rat, strain BR 46, males, i.v., site: any site (literature study), lesion: malignant tumor, dosed 52 weeks, study length 104 weeks): 0.129 mg/kg/day (inactive)
TD50 (rat, strain BR 46, males, i.v., site: any site (literature study), lesion: several types, types named in the paper, dosed 52 weeks, study length 104 weeks): 0.0787 mg/kg/day (inactive)

CC1=C(/C=C/C(C)=C/C=C/C(C)=C/C=C/C=C(C)/C=C/C=C(C)/C=C/C2=C(C)CCCC2(C)C)C(C)(C)CCC1
TD50 (mouse, strain Charles River CD1, females, in feed, site: liver, lesion: hepatocellular adenoma, dosed 105 weeks, study length 105 weeks): 15900 mg/kg/day (inactive)
carcinogen call (mouse, strain Charles River CD1, females, in feed, site: liver, lesion: hepatocellular carcinoma, dosed 105 weeks, study length 105 weeks): negative (inactive)
carcinogen call (mouse, strain Charles River CD1, females, in feed, site: lung, lesion: adenocarcinoma, dosed 105 weeks, study length 105 weeks): negative (inactive)
TD50 (mouse, strain Charles River CD1, females, in feed, site: lung, lesion: adenoma, dosed 105 weeks, study length 105 weeks): 93600 mg/kg/day (inactive)
carcinogen call (mouse, strain Charles River CD1, males, in feed, site: liver, lesion: hepatocellular adenoma, dosed 105 weeks, study length 105 weeks): negative (inactive)
TD50 (mouse, strain Charles River CD1, males, in feed, site: liver, lesion: hepatocellular carcinoma, dosed 105 weeks, study length 105 weeks): 49700 mg/kg/day (inactive)
TD50 (mouse, strain Charles River CD1, males, in feed, site: lung, lesion: adenocarcinoma, dosed 105 weeks, study length 105 weeks): 26400 mg/kg/day (inactive)
TD50 (mouse, strain Charles River CD1, males, in feed, site: lung, lesion: adenoma, dosed 105 weeks, study length 105 weeks): 71400 mg/kg/day (inactive)

CC1(C)[C@@H](O[C@H]2O[C@H](C(=O)O)[C@@H](O)[C@H](O)[C@H]2O[C@@H]2O[C@H](C(=O)O)[C@@H](O)[C@H](O)[C@H]2O)CC[C@]2(C)[C@H]3C(=O)C=C4[C@@H]5C[C@@](C)(C(=O)O)CC[C@]5(C)CC[C@@]4(C)[C@]3(C)CC[C@@H]12
carcinogen call (mouse, strain B6C3F1, females, in drinking water, site: any site (literature study), lesion: several types, types named in the paper, dosed 96 weeks, study length 110 weeks): negative (inactive)
carcinogen call (mouse, strain B6C3F1, females, in drinking water, site: liver, lesion: hemangioma, dosed 96 weeks, study length 110 weeks): negative (inactive)
TD50 (mouse, strain B6C3F1, females, in drinking water, site: liver, lesion: hepatocellular adenoma, dosed 96 weeks, study length 110 weeks): 28900 mg/kg/day (inactive)
TD50 (mouse, strain B6C3F1, females, in drinking water, site: liver, lesion: hepatocellular carcinoma, dosed 96 weeks, study length 110 weeks): 29000 mg/kg/day (inactive)
carcinogen call (mouse, strain B6C3F1, females, in drinking water, site: lung, lesion: adenocarcinoma, dosed 96 weeks, study length 110 weeks): negative (inactive)
TD50 (mouse, strain B6C3F1, females, in drinking water, site: lung, lesion: adenoma, dosed 96 weeks, study length 110 weeks): 14400 mg/kg/day (inactive)
TD50 (mouse, strain B6C3F1, males, in drinking water, site: any site (literature study), lesion: several types, types named in the paper, dosed 96 weeks, study length 110 weeks): 3170 mg/kg/day (inactive)
carcinogen call (mouse, strain B6C3F1, males, in drinking water, site: liver, lesion: hemangioma, dosed 96 weeks, study length 110 weeks): negative (inactive)
carcinogen call (mouse, strain B6C3F1, males, in drinking water, site: liver, lesion: hepatocellular adenoma, dosed 96 weeks, study length 110 weeks): negative (inactive)
carcinogen call (mouse, strain B6C3F1, males, in drinking water, site: liver, lesion: hepatocellular carcinoma, dosed 96 weeks, study length 110 weeks): negative (inactive)
carcinogen call (mouse, strain B6C3F1, males, in drinking water, site: lung, lesion: adenocarcinoma, dosed 96 weeks, study length 110 weeks): negative (inactive)
carcinogen call (mouse, strain B6C3F1, males, in drinking water, site: lung, lesion: adenoma, dosed 96 weeks, study length 110 weeks): negative (inactive)

O=S(O)O
TD50 (mouse, strain ICR/Jcl, females, in drinking water, site: liver, lesion: hemangioendothelial sarcoma, dosed 104 weeks, study length 104 weeks): 204000 mg/kg/day (inactive)
TD50 (mouse, strain ICR/Jcl, females, in drinking water, site: lung, lesion: adenocarcinoma, dosed 104 weeks, study length 104 weeks): 100000 mg/kg/day (inactive)
TD50 (mouse, strain ICR/Jcl, females, in drinking water, site: lung, lesion: adenoma, dosed 104 weeks, study length 104 weeks): 33600 mg/kg/day (inactive)
carcinogen call (mouse, strain ICR/Jcl, males, in drinking water, site: liver, lesion: one or several types, types not named, dosed 104 weeks, study length 104 weeks): negative (inactive)
TD50 (mouse, strain ICR/Jcl, males, in drinking water, site: lung, lesion: adenocarcinoma, dosed 104 weeks, study length 104 weeks): 84800 mg/kg/day (inactive)
TD50 (mouse, strain ICR/Jcl, males, in drinking water, site: lung, lesion: adenoma, dosed 104 weeks, study length 104 weeks): 84800 mg/kg/day (inactive)
